Test results reported in PMC3446843 (Toxicological Sciences, 2012).

What was measured:
[1] = test system: isolated mouse liver mitochondria; assay: Loss of mitochondrial transmembrane potential; format: biochemical; conditions: for ΔΨm loss EC20: 20% of maximal loss of ΔΨm (50µM mClCCP = 100%), 30-min incubation
[2] = test system: isolated mouse liver mitochondria, complex I; assay: Oxygen consumption through complex I; conditions: for O2 cons CI EC20: inhibition of oxygen consumption, malate + glutamate + ADP, 2µM rotenone = 100%

Compound: CC[C@H]1OC(=O)[C@H](C)[C@@H](O[C@H]2C[C@@](C)(OC)[C@@H](O)[C@H](C)O2)[C@H](C)[C@@H](O[C@@H]2O[C@H](C)C[C@H](N(C)C)[C@H]2O)[C@](C)(O)C[C@@H](C)/C(=N\OCOCCOC)[C@H](C)[C@@H](O)[C@]1(C)O [Roxithromycin]
- ΔΨm loss EC20 [1]: 244.8 µM

Compound: CC(C)(C)NC(=O)[C@@H]1C[C@@H]2CCCC[C@@H]2CN1C[C@@H](O)[C@H](Cc1ccccc1)NC(=O)[C@H](CC(N)=O)NC(=O)c1ccc2ccccc2n1 [Saquinavir]
- ΔΨm loss EC20 [1]: 10.3 µM
- concentrations collapsing the ΔΨm and altering the mitochondrial respiration [1]: lower than 50 μM
- effect on oxygen consumption (in words) ([2]; with malate/glutamate and/or succinate): increased oxygen consumption

Compound: O=C(O)c1ccccc1Nc1cccc(C(F)(F)F)c1 [Flufenamic acid]
- ΔΨm loss EC20 [1]: 42.5 µM

Compound: OC(Cn1cncn1)(Cn1cncn1)c1ccc(F)cc1F [Fluconazole]
- ΔΨm loss EC20 [1]: 512.7 µM
- O2 cons CI EC20 [2]: 186.6 µM

Compound: CCN(CC)CCNC(=O)c1c(C)[nH]c(/C=C2\C(=O)Nc3ccc(F)cc32)c1C [Sunitinib]
- ΔΨm loss EC20 [1]: 23.2 µM

Compound: COc1cccc2c1C(=O)c1c(O)c3c(c(O)c1C2=O)C[C@@](O)(C(=O)CO)C[C@@H]3O[C@H]1C[C@H](N)[C@H](O)[C@H](C)O1 [Doxorubicin]
- ΔΨm loss EC20 [1]: 8.9 µM

Compound: COc1ccc2c(c1)c(CC(=O)O)c(C)n2C(=O)c1ccc(Cl)cc1 [Indomethacin]
- ΔΨm loss EC20 [1]: 443.2 µM

Compound: Cc1ccc(Nc2c(F)cccc2Cl)c(CC(=O)O)c1 [Lumiracoxib]
- ΔΨm loss EC20 [1]: 148.8 µM
- O2 cons CI EC20 [2]: 12.0 µM

Compound: O=C(N/N=C/c1ccc([N+](=O)[O-])o1)c1ccc(O)cc1 [Nifuroxazide]
- ΔΨm loss EC20 [1]: 388.2 µM
- O2 cons CI EC20 [2]: 3.7 µM

Compound: O=C(O)c1cn(C2CC2)c2cc(N3CCNCC3)c(F)cc2c1=O [Ciprofloxacin]
- ΔΨm loss EC20 [1]: > 400 µM

Compound: CO[C@@H]1[C@@H](OC(N)=O)[C@@H](O)[C@H](Oc2ccc3c(O)c(NC(=O)c4ccc(O)c(CC=C(C)C)c4)c(=O)oc3c2C)OC1(C)C [Novobiocin]
- ΔΨm loss EC20 [1]: 351.6 µM
- O2 cons CI EC20 [2]: 173.5 µM

Compound: O=C(/C=C/c1ccc(O)c(O)c1)c1ccc(O)cc1O [Butein]
- ΔΨm loss EC20 [1]: > 200 µM

Compound: CCCCc1oc2ccccc2c1C(=O)c1cc(I)c(OCCN(CC)CC)c(I)c1 [Amiodarone]
- ΔΨm loss EC20 [1]: 2.6 µM

Compound: CN(C/C=C/C#CC(C)(C)C)Cc1cccc2ccccc12 [Terbinafine]
- ΔΨm loss EC20 [1]: 12.5 µM

Compound: Cc1c(N(C)CS(=O)(=O)[O-])c(=O)n(-c2ccccc2)n1C.[Na+] [Dipyrone]
- ΔΨm loss EC20 [1]: 354.4 µM
- O2 cons CI EC20 [2]: 107.3 µM

Compound: [Cl][Mn][Cl] [Manganese chloride]
- ΔΨm loss EC20 [1]: > 800 µM
- O2 cons CI EC20 [2]: > 400 µM

Compound: CC(C)(S)[C@@H](N)C(=O)O [D-penicillamine]
- ΔΨm loss EC20 [1]: > 400 µM
- O2 cons CI EC20 [2]: > 800 µM

Compound: CCN(CC)CC#CCOC(=O)C(O)(c1ccccc1)C1CCCCC1 (centres unmarked) [Oxybutynine]
- ΔΨm loss EC20 [1]: 178.3 µM
- O2 cons CI EC20 [2]: 115.4 µM

Compound: Clc1ccccc1CN1CCc2sccc2C1 [Ticlopidine]
- ΔΨm loss EC20 [1]: 50.5 µM

Compound: O=C(O)CCCc1ccc(N(CCCl)CCCl)cc1 [Chlorambucil]
- ΔΨm loss EC20 [1]: > 200 µM
- O2 cons CI EC20 [2]: 140.9 µM

Compound: O=P(O)(O)C(Cl)(Cl)P(=O)(O)O [Clodronate]
- ΔΨm loss EC20 [1]: > 400 µM
- O2 cons CI EC20 [2]: 227.2 µM

Compound: CNC(C)C1CCC(N)C(OC2C(N)CC(N)C(OC3OCC(C)(O)C(NC)C3O)C2O)O1 (centres unmarked) [Gentamicin]
- ΔΨm loss EC20 [1]: 49.0 µM

Compound: COc1cc(CNC(=O)CCCC/C=C/C(C)C)ccc1O [Capsaicin]
- ΔΨm loss EC20 [1]: 275.0 µM
- O2 cons CI EC20 [2]: 15.7 µM

Compound: Cc1cc2nc3c(=O)[nH]c(=O)nc-3n(C[C@H](O)[C@H](O)[C@H](O)CO)c2cc1C [Riboflavin]
- O2 cons CI EC20 [2]: 182.8 µM

Compound: CCCc1cc(=O)[nH]c(=S)[nH]1 [Propylthiouracil]
- ΔΨm loss EC20 [1]: 391.5 µM

Compound: CC1(C)S[C@@H]2[C@H](NC(=O)[C@H](N)c3ccccc3)C(=O)N2[C@H]1C(=O)O [Ampicillin]
- ΔΨm loss EC20 [1]: > 400 µM

Compound: Cc1cccc(Nc2ccccc2C(=O)O)c1C [Mefenamic acid]
- ΔΨm loss EC20 [1]: 49.7 µM

Compound: CC1(C)S[C@@H]2[C@H](NC(=O)[C@H](N)c3ccc(O)cc3)C(=O)N2[C@H]1C(=O)O [Amoxicillin]
- ΔΨm loss EC20 [1]: > 400 µM

Compound: CO[C@H]1/C=C/O[C@@]2(C)Oc3c(C)c(O)c4c(O)c(c(/C=N/N5CCN(C)CC5)c(O)c4c3C2=O)NC(=O)/C(C)=C\C=C\[C@H](C)[C@H](O)[C@@H](C)[C@@H](O)[C@@H](C)[C@H](OC(C)=O)[C@@H]1C [Rifampicin]
- ΔΨm loss EC20 [1]: > 800 µM

Compound: O=C(O)c1nn(Cc2ccc(Cl)cc2Cl)c2ccccc12 [Lonidamine]
- ΔΨm loss EC20 [1]: 138.1 µM

Compound: CC(C)c1c(C(=O)Nc2ccccc2)c(-c2ccccc2)c(-c2ccc(F)cc2)n1CC[C@@H](O)C[C@@H](O)CC(=O)O [Atorvastatin]
- ΔΨm loss EC20 [1]: 4.3 µM

Compound: CN(C)CCCN1c2ccccc2CCc2ccccc21 [Imipramine]
- ΔΨm loss EC20 [1]: 74.8 µM

Compound: CC[C@H](C)C(=O)O[C@H]1C[C@H](O)C=C2C=C[C@H](C)[C@H](CC[C@@H](O)C[C@@H](O)CC(=O)O)[C@H]21 [Pravastatin]
- ΔΨm loss EC20 [1]: > 200 µM

Compound: Clc1ccccc1C(c1ccccc1)(c1ccccc1)n1ccnc1 [Clotrimazole]
- ΔΨm loss EC20 [1]: 23.9 µM

Compound: CO[C@]12C[C@@H](COC(=O)c3cncc(Br)c3)CN(C)[C@@H]1Cc1cn(C)c3cccc2c13 [Nicergoline]
- ΔΨm loss EC20 [1]: 82.6 µM

Compound: CC(C)C(=O)Nc1ccc([N+](=O)[O-])c(C(F)(F)F)c1 [Flutamide]
- ΔΨm loss EC20 [1]: 27.0 µM

Compound: COc1cccc(C2(O)CCCCC2CN(C)C)c1 (centres unmarked) [Tramadol]
- ΔΨm loss EC20 [1]: 263.8 µM

Compound: O=C1c2c(O)ccc(O)c2C(=O)c2c(NCCNCCO)ccc(NCCNCCO)c21 [Mitoxantrone]
- ΔΨm loss EC20 [1]: 7.00 µM

Compound: CCN(CC)C(=S)SSC(=S)N(CC)CC [Disulfiram]
- ΔΨm loss EC20 [1]: 12.6 µM

Compound: CCCCC1C(=O)N(c2ccccc2)N(c2ccccc2)C1=O [Phenylbutazone]
- ΔΨm loss EC20 [1]: 140.2 µM

Compound: Cc1c(Cl)cccc1Nc1ccccc1C(=O)O [Tolfenamic acid]
- ΔΨm loss EC20 [1]: 7.1 µM

Compound: COc1cc2ncnc(Nc3ccc(F)c(Cl)c3)c2cc1OCCCN1CCOCC1 [Gefitinib]
- ΔΨm loss EC20 [1]: 9.6 µM

Compound: CC(C)=CCC[C@]1(C)[C@@H](CC=C(C)C)C[C@@]2(CC=C(C)C)C(=O)[C@]1(C(=O)C(C)C)C(=O)C(CC=C(C)C)=C2O [Hyperforin]
- ΔΨm loss EC20 [1]: 0.1 µM

Compound: Cc1c(O)cccc1C(=O)N[C@@H](CSc1ccccc1)[C@H](O)CN1C[C@H]2CCCC[C@H]2C[C@H]1C(=O)NC(C)(C)C [Nelfinavir]
- ΔΨm loss EC20 [1]: 6.3 µM
- concentrations collapsing the ΔΨm and altering the mitochondrial respiration [1]: lower than 50 μM

Compound: Cc1nc(Nc2ncc(C(=O)Nc3c(C)cccc3Cl)s2)cc(N2CCN(CCO)CC2)n1 [Dasatinib]
- ΔΨm loss EC20 [1]: 20.8 µM

Compound: CS(=O)(=O)Nc1ccc([N+](=O)[O-])cc1Oc1ccccc1 [Nimesulide]
- ΔΨm loss EC20 [1]: 10.1 µM

Compound: CC[C@]1(O)C[C@@H]2CN(CCc3c([nH]c4ccccc34)[C@@](C(=O)OC)(c3cc4c(cc3OC)N(C)[C@H]3[C@@](O)(C(=O)OC)[C@H](OC(C)=O)[C@]5(CC)C=CCN6CC[C@]43[C@@H]65)C2)C1 [Vinblastine]
- ΔΨm loss EC20 [1]: 25.7 µM

Compound: CCC1=C(C)CN(C(=O)NCCc2ccc(S(=O)(=O)NC(=O)N[C@H]3CC[C@H](C)CC3)cc2)C1=O [Glimepiride]
- ΔΨm loss EC20 [1]: 94.6 µM

Compound: CCOC(=O)CN[C@@H](C(=O)N1CC[C@H]1C(=O)NCc1ccc(/C(N)=N\O)cc1)C1CCCCC1 [Ximelagatran]
- ΔΨm loss EC20 [1]: 535.7 µM

Compound: Oc1ccc(/C=C/c2cc(O)cc(O)c2)cc1 [Resveratrol]
- ΔΨm loss EC20 [1]: 395.4 µM

Compound: Cc1cc2c(C(C)C)c(O)c(O)c(C=O)c2c(O)c1-c1c(C)cc2c(C(C)C)c(O)c(O)c(C=O)c2c1O [Gossypol]
- ΔΨm loss EC20 [1]: 1.0 µM

Compound: Cc1cn(-c2cc(NC(=O)c3ccc(C)c(Nc4nccc(-c5cccnc5)n4)c3)cc(C(F)(F)F)c2)cn1 [Nilotinib]
- ΔΨm loss EC20 [1]: 11.5 µM

Compound: Cc1ccc(C(=O)c2cc(O)c(O)c([N+](=O)[O-])c2)cc1 [Tolcapone]
- ΔΨm loss EC20 [1]: 3.9 µM

Compound: O=C(O)c1cc(-c2ccc(F)cc2F)ccc1O [Diflunisal]
- ΔΨm loss EC20 [1]: 17.9 µM

Compound: CC1=NS(=O)(=O)c2cc(Cl)ccc2N1 [Diazoxide]
- ΔΨm loss EC20 [1]: > 200 µM

Compound: O=c1ccc2ccccc2o1 [Coumarin]
- ΔΨm loss EC20 [1]: 0.9 µM

Compound: CC(C)c1nc(CN(C)C(=O)N[C@H](C(=O)N[C@@H](Cc2ccccc2)C[C@H](O)[C@H](Cc2ccccc2)NC(=O)OCc2cncs2)C(C)C)cs1 [Ritonavir]
- ΔΨm loss EC20 [1]: 24.8 µM
- concentrations collapsing the ΔΨm and altering the mitochondrial respiration [1]: lower than 50 μM

Compound: Cc1ccc(NC(=O)c2ccc(CN3CCN(C)CC3)cc2)cc1Nc1nccc(-c2cccnc2)n1 [Imatinib]
- ΔΨm loss EC20 [1]: 25.7 µM

Compound: COc1cccc2c1C(=O)c1c(O)c3c(c(O)c1C2=O)C[C@@](O)(C(C)=O)C[C@@H]3O[C@H]1C[C@H](N)[C@H](O)[C@H](C)O1 [Daunorubicin]
- O2 cons CI EC20 [2]: 10.9 µM

Compound: CO[C@@]12[C@H](COC(N)=O)C3=C(C(=O)C(C)=C(N)C3=O)N1C[C@@H]1N[C@@H]12 [Mitomycin C]
- ΔΨm loss EC20 [1]: > 200 µM

Compound: CNC(=O)c1cc(Oc2ccc(NC(=O)Nc3ccc(Cl)c(C(F)(F)F)c3)cc2)ccn1 [Sorafenib]
- ΔΨm loss EC20 [1]: 0.5 µM

Compound: NNC(=O)c1ccncc1 [Isoniazide]
- ΔΨm loss EC20 [1]: 504.6 µM

Compound: CS(=O)(=O)OCCCCOS(C)(=O)=O [Busulfan]
- ΔΨm loss EC20 [1]: 483.1 µM

Compound: Clc1ccc(COC(Cn2ccnc2)c2ccc(Cl)cc2Cl)cc1 (centres unmarked) [Econazole]
- ΔΨm loss EC20 [1]: 13.3 µM

Compound: [H]/N=C(/N)N[C@H]1[C@H](O)[C@@H](O)[C@H](O[C@@H]2O[C@@H](C)[C@](O)(C=O)[C@H]2O[C@@H]2O[C@@H](CO)[C@H](O)[C@@H](O)[C@@H]2NC)[C@@H](N/C(N)=N\[H])[C@@H]1O [Streptomycin]
- ΔΨm loss EC20 [1]: 78.8 µM

Compound: O=c1c(-c2ccc(O)cc2)coc2cc(O)cc(O)c12 [Genistein]
- ΔΨm loss EC20 [1]: 150.6 µM

Compound: CC/C(=C(\c1ccccc1)c1ccc(OCCN(C)C)cc1)c1ccccc1 [Tamoxifen]
- ΔΨm loss EC20 [1]: 2.9 µM

Compound: Sc1ncnc2nc[nH]c12 [Mercaptopurine]
- ΔΨm loss EC20 [1]: 406.9 µM
